Measurements published in US9840509B2, “Heterocyclic compounds” (CADILA HEALTHCARE LIMITED, priority 2014, dated 2017).

Experiments:
CYP 2C8 = molecular target: T1, CYP 2C8 (Homo sapiens, UniProt P10632); test: CYP inhibition in human liver microsomes, 2C8; assay type: in vitro ADME; settings: pH 7.4, @ 10 μM concn
T1 construct: from tissue; host or cells: human liver microsomes
T1 sequence (P10632 1-490): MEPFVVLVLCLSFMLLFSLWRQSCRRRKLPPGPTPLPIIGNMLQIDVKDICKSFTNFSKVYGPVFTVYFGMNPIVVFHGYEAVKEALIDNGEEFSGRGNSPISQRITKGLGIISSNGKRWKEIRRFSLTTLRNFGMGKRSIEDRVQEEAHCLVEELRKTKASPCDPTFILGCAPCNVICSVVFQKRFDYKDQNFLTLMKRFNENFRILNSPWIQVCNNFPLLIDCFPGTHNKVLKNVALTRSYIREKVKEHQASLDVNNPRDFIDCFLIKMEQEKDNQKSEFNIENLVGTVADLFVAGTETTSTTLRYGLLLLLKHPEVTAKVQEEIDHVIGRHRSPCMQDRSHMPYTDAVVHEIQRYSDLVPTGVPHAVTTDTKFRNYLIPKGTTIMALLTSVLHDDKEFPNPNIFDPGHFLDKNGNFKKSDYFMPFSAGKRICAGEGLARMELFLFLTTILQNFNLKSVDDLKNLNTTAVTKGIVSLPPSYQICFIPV
Protocol: (§1) CYP Inhibition Studies: CYP inhibition studies were performed with test compounds, at two concentrations ([…] and 10 μM), using human liver microsomes (Yao, M., Zhu, M., Sinz, M. W., Zhang, H., Humphreys, W. F., Rodrigues, A. D and Dai, R., Journal of Pharmaceutical and Biomedical Analysis, 2007, 44, 211-223; Walsky, R. L and Obach, R. S., Drug Metab. Dispos., 2004, 32, 647-660). Human liver microsomes were mixed with 100 mM phosphate buffer (pH 7.4) and probe substrate and warmed to […] in microcentrifuge tubes. Aliquots of this mixture (499 μL) were transferred to each pre-labeled microcentrifuge tubes, followed by addition of the 1 μL of inhibitors (test compound/CYP-specific positive control inhibitor) or control solvent (DMSO). Aliquots of this mixture (90 μL) were transferred to each pre-labeled microcentrifuge tubes in duplicate. Final solvent concentrations were 0.2% (v/v) or less. Incubations were commenced with the addition of 10 μL NADPH stock (assay concentration, 1 mM) to a final incubation volume of 100 μL and incubated in shaking water bath (at 37° C. and 100 rpm), for the period defined in Tables 1. Incubations were terminated by addition of 400 μL of termination solvent (CH3CN) containing internal standard. The terminated samples were vortex-mixed, centrifuged at 10000 rpm for 5 min and supernatant transferred into HPLC vials for LC-MS/MS analysis to monitor metabolites produced by marker CYP reactions. […] Animals

[1] = molecular target: T2, recombinant purified human BTK (Homo sapiens, UniProt Q06187); test: In vitro BTK kinase assay on ADP Glo platform; assay type: biochemical; settings: 2 hr room temperature, read-out: In-vitro BTK inhibitory activity: IC50
T2 construct: purchased SignalChem, USA
T2 sequence (Q06187 whole entry): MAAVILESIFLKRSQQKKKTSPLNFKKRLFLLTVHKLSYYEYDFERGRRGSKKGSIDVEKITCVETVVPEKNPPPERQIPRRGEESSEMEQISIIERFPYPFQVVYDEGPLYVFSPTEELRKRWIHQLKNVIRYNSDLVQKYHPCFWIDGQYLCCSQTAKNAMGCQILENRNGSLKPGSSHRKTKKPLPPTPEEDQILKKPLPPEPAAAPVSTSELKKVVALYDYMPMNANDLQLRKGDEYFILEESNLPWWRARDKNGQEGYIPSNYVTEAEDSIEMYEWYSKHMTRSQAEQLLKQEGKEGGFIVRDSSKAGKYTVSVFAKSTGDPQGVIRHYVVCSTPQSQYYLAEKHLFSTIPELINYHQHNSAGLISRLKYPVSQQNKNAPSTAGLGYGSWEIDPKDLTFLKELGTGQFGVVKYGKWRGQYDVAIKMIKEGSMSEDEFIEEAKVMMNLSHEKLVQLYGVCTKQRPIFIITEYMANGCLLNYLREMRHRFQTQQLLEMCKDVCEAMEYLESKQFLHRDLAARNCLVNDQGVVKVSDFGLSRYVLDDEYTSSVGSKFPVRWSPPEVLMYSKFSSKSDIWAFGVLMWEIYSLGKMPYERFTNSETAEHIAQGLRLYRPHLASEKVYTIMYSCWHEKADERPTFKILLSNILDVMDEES
Protocol: Testing of Compounds of the Invention Biological Studies: In vitro BTK Inhibitory Activity Assay:
In vitro BTK inhibitory activity of test compounds were screened using BTK kinase assay on ADP Glo platform (Li, H., Totoritis, R. D., Lor, L. A., Schwartz, B., Caprioli, P., Jurewicz, A. J and Zhang, G., Assay Drug Dev. Technol., 2009, 7(6), 598-605). Briefly, fixed amount of recombinant purified human BTK (3 ng/reaction from SignalChem, USA) were incubated with increasing concentration of test compounds, in 1× kinase reaction buffer (40 mM Tris-Cl, pH7.5, 20 mM MgCl2, 2 mM MnCl2, 0.1 mg/ml BSA and 50 μM DTT). Enzymatic reaction was initiated by adding a substrate cocktail containing 50 µM of ATP (final concentration) and […] of polyGln4Tyr1 (Signal Chem) in total 25 μl of reaction, in round bottom white 96 well plate. The reaction mixture was incubated at room temperature for 2 hr. After 2 hr of incubation, 10 μl of the reaction mix was mixed with […] of ADP Glo reagent, in another round bottom white 96 well plate and incubated at room temperature for 40 min. This was followed by addition of kinase detection reagent (20 μl per reaction) and incubation at room temperature for 30 min. Finally, plate was read for luminescence at an integration time of 500 millisecond per well. Data were plotted taking Enzyme with no inhibitor set as the 100% kinase activity and for dose response curve, % Kinase activity was plotted against conc on Log scale and IC50 was determined by non linear curve fitting method using GraphPad Prism software 6. The in vitro BTK inhibitory activity (IC50) for representative compounds are listed in […]

CYP 1A2 = molecular target: T3, CYP 1A2 (Homo sapiens, UniProt P05177); test: CYP inhibition in human liver microsomes, 1A2; assay type: in vitro ADME; settings: pH 7.4, @ 10 μM concn
T3 construct: from tissue; host or cells: human liver microsomes
T3 sequence (P05177 1-516): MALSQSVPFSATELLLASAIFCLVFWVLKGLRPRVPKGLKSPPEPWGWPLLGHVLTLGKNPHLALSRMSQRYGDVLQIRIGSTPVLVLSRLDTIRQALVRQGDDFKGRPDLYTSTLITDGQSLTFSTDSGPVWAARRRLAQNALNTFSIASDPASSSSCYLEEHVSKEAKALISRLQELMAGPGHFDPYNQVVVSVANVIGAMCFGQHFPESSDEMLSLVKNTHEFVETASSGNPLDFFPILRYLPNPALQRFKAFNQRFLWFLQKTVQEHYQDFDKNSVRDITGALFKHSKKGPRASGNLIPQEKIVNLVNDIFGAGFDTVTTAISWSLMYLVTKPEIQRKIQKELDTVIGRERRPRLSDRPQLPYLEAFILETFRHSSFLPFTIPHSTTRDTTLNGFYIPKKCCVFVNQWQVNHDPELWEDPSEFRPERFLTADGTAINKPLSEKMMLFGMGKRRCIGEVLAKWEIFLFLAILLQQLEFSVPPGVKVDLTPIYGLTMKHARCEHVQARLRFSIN
Protocol: as §1

CYP 3A4 = molecular target: T4, CYP 3A4 (Homo sapiens, UniProt P08684); test: CYP inhibition in human liver microsomes, 3A4; assay type: in vitro ADME; settings: pH 7.4, @ 10 μM concn
T4 construct: from tissue; host or cells: human liver microsomes
T4 sequence (P08684 whole entry): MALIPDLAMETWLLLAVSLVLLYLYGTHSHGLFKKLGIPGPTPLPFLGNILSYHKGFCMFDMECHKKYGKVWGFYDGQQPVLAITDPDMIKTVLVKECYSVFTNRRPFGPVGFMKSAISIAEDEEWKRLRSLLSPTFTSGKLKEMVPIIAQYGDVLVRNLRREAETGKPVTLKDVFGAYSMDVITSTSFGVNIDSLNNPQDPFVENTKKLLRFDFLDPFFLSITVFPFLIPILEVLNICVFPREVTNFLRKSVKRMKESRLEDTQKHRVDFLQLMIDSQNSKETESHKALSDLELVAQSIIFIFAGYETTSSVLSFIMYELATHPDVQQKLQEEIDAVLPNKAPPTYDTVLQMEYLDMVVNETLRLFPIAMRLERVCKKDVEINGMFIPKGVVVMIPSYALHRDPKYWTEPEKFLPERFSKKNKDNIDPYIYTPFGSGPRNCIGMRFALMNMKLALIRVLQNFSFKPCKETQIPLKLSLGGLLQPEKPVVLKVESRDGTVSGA
Protocol: as §1

CYP 2C19 = molecular target: T5, CYP 2C19 (Homo sapiens, UniProt P33261); test: CYP inhibition in human liver microsomes, 2C19; assay type: in vitro ADME; settings: pH 7.4, @ 10 μM concn
T5 construct: from tissue; host or cells: human liver microsomes
T5 sequence (P33261 whole entry): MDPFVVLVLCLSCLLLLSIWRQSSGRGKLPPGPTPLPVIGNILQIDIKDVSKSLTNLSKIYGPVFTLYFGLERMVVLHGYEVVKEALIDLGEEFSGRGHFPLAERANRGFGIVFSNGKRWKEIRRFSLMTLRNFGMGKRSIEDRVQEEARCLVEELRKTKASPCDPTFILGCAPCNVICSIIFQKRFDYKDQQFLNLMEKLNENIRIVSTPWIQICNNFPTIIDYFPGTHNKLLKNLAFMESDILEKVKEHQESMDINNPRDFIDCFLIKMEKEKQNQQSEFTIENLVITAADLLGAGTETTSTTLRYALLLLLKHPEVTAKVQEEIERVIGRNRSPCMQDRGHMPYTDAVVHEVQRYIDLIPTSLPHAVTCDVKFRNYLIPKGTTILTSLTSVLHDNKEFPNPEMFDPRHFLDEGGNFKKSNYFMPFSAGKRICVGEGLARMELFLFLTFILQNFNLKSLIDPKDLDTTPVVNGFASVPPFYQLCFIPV
Protocol: as §1

CYP 2C9 = molecular target: T6, CYP 2C9 (Homo sapiens, UniProt P11712); test: CYP inhibition in human liver microsomes, 2C9; assay type: in vitro ADME; settings: pH 7.4, @ 10 μM concn
T6 construct: from tissue; host or cells: human liver microsomes
T6 sequence (P11712 whole entry): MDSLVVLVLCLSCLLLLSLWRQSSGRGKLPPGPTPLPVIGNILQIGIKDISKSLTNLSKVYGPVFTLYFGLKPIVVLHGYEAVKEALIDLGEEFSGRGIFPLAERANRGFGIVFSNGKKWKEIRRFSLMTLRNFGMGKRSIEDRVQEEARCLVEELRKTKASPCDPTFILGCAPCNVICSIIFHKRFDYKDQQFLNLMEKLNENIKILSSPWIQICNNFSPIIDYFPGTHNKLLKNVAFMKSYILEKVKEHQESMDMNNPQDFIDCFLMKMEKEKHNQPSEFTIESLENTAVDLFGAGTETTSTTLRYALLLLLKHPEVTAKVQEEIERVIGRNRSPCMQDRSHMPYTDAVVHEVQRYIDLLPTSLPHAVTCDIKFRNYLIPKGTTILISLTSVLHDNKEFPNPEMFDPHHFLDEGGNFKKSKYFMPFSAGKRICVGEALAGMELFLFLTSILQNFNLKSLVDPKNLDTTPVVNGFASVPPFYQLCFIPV
Protocol: as §1

CYP 2D6 = molecular target: T7, CYP 2D6 (Homo sapiens, UniProt P10635); test: CYP inhibition in human liver microsomes, 2D6; assay type: in vitro ADME; settings: pH 7.4, @ 10 μM concn
T7 construct: from tissue; host or cells: human liver microsomes
T7 sequence (P10635 whole entry): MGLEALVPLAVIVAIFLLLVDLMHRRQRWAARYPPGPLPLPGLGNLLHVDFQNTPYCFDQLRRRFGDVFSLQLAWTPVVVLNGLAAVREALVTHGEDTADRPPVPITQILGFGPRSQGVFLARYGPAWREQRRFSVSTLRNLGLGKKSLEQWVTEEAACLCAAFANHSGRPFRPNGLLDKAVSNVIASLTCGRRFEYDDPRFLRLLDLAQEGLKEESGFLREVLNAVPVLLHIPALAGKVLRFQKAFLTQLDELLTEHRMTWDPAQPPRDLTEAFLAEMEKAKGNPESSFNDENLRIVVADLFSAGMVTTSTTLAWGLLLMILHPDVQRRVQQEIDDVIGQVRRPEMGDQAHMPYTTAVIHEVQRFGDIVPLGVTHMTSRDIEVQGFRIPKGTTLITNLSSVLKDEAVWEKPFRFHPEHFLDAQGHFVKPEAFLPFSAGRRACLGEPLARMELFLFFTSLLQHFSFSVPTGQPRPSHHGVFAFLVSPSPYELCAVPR
Protocol: as §1

inhibition at 10 μM (CYP 2C8) [%]	IC50 [1] [nM]	inhibition at 10 μM (CYP 1A2) [%]	inhibition at 10 μM (CYP 3A4) [%]	inhibition at 10 μM (CYP 2C19) [%]	inhibition at 10 μM (CYP 2C9) [%]	inhibition at 10 μM (CYP 2D6) [%]	Compound
< 50	1.7	< 50	< 50	< 50	< 50	< 50	C=CC(=O)N1CC2CC(n3nc(-c4ccc(-c5nnc(C)o5)cc4)c4c(N)ncnc43)CC2C1 (centres unmarked) [Compound 16, 1-(5-(4-amino-3-(4-(5-methyl-1,3,4-oxadiazol-2-yl)phenyl)-1H-pyrazolo[3,4-d]pyrimidin-1-yl)hexahydrocyclopenta[c]pyrrol-2(1H)-yl)prop-2-en-1-one]
> 50	50	> 50	> 50	< 50	> 50	< 50	CN(C)C/C=C/C(=O)N1CC2CC(n3nc(-c4ccc(-c5nnc(-c6cnccn6)s5)cc4)c4c(N)ncnc43)CC2C1 (centres unmarked) [Compound 56, (E)-1-(5-(4-amino-3-(4-(5-(pyrazin-2-yl)-1,3,4-thiadiazol-2-yl)phenyl)-1H-pyrazolo[3,4-d]pyrimidin-1-yl)hexahydrocyclopenta[c]pyrrol-2(1H)-yl)-4-(dimethylamino)but-2-en-1-one]
< 50	6	< 50	< 50	< 50	< 50	< 50	C=CC(=O)N1CC2CC(n3nc(-c4ccc(C(=O)Nc5cc(C)ccn5)cc4)c4c(N)ncnc43)CC2C1 (centres unmarked) [Compound 30, 4-(1-(2-acryloyloctahydrocyclopenta[c]pyrrol-5-yl)-4-amino-1H-pyrazolo[3,4-d]pyrimidin-3-yl)-N-(4-methylpyridin-2-yl)benzamide]
< 50	1.4	< 50	< 50	< 50	< 50	< 50	C=CC(=O)N1CC2CC(n3nc(-c4ccc5nc(-c6ccccc6)sc5c4)c4c(N)ncnc43)CC2C1 (centres unmarked) [Compound 14, 1-(5-(4-amino-3-(2-phenylbenzo[d]thiazol-6-yl)-1H-pyrazolo[3,4-d]pyrimidin-1-yl)hexahydrocyclopenta[c]pyrrol-2(1H)-yl)prop-2-en-1-one]
< 50	17	< 50	< 50	< 50	< 50	> 50	C=CC(=O)N1CC2CC(n3nc(-c4ccc(NC(=O)c5ccccc5)cc4)c4c(N)ncnc43)CC2C1 (centres unmarked) [Compound 38, N-(4-(1-(2-acryloyloctahydrocyclopenta[c]pyrrol-5-yl)-4-amino-1H-pyrazolo[3,4-d]pyrimidin-3-yl)phenyl)benzamide]
< 50	2.5	< 50	< 50	< 50	< 50	< 50	CN(C)C/C=C/C(=O)N1CC2CC(n3nc(-c4ccc(C(=O)Nc5cnccn5)cc4)c4c(N)ncnc43)CC2C1 (centres unmarked) [Compound 49, (E)-4-(4-amino-1-(2-(4-(dimethylamino)but-2-enoyl)octahydrocyclopenta [c]pyrrol-5-yl)-1H-pyrazolo[3,4-d]pyrimidin-3-yl)-N-(pyrazin-2-yl)benzamide]
< 50	1.5	< 50	< 50	< 50	< 50	< 50	C=CS(=O)(=O)N1CC2CC(n3c(=O)n(-c4ccc(Oc5ccccc5)cc4)c4c(N)ncnc43)CC2C1 (centres unmarked) [Compound 33, 6-amino-7-(4-phenoxyphenyl)-9-(2-(vinylsulfonyl)octahydrocyclopenta[c]pyrrol-5-yl)-7H-purin-8(9H)-one]
< 50	18	< 50	> 50	< 50	< 50	< 50	C=CC(=O)N1CC2CC(n3nc(-c4ccc5c(c4)OCO5)c4c(N)ncnc43)CC2C1 (centres unmarked) [Compound 15, 1-(5-(4-amino-3-(benzo[d] [1,3]dioxol-5-yl)-1H-pyrazolo[3,4-d]pyrimidin-1-yl)hexahydrocyclopenta[c]pyrrol-2(1H)-yl)prop-2-en-1-one]
< 50	1.7	< 50	< 50	< 50	< 50	< 50	C=CC(=O)N1CC2CC(n3nc(-c4ccc5sccc5c4)c4c(N)ncnc43)CC2C1 (centres unmarked) [Compound 6, 1-(5-(4-amino-3-(benzo[b]thiophen-5-yl)-1H-pyrazolo[3,4-d]pyrimidin-1-yl)hexahydrocyclopenta[c]pyrrol-2(1H)-yl)prop-2-en-1-one]
< 50	40	< 50	< 50	< 50	< 50	> 50	C=CC(=O)N1CC2CC(n3nc(-c4ccc5ocnc5c4)c4c(N)ncnc43)CC2C1 (centres unmarked) [Compound 22, 1-(5-(4-amino-3-(benzo[d]oxazol-5-yl)-1H-pyrazolo[3,4-d]pyrimidin-1-yl)hexahydrocyclopenta[c]pyrrol-2(1H)-yl)prop-2-en-1-one]
< 50	1.4	< 50	< 50	< 50	< 50	< 50	C=CC(=O)N1CC2CC(n3nc(-c4ccc(-c5nnc(-c6ccccn6)s5)cc4)c4c(N)ncnc43)CC2C1 (centres unmarked) [Compound 39, 1-(5-(4-amino-3-(4-(5-(pyridin-2-yl)-1,3,4-thiadiazol-2-yl)phenyl)-1H-pyrazolo [3,4-d]pyrimidin-1-yl)hexahydrocyclopenta[c]pyrrol-2(1H)-yl)prop-2-en-1-one]
